Activity calls are given as the source filed them. No cut-off for these calls is given here.
Legend:
[1] = test system: PBMC; experiment: Cytotoxicity against PBMC (unknwon origin); type: cell-based
[2] = test system: U2932; experiment: Growth inhibition of human U2932 cells; type: functional; details: Homo sapiens, U2932
[3] = AUC (0 to infinity) in Sprague-Dawley rat at 10 mg/kg, po by LC-MS/MS method; type: ADME, organism-based; set-up: dose 10 mg/kg, route oral, time infinity; details: in vivo
[4] = test system: Ramos; experiment: Growth inhibition of human Ramos cells; type: functional; details: Homo sapiens, Ramos
[5] = Cmax in Sprague-Dawley rat at 1 mg/kg, iv by LC-MS/MS method; type: ADME, organism-based; set-up: dose 1 mg/kg, route intravenous; details: in vivo
[6] = MRT (0 to t) in Sprague-Dawley rat at 10 mg/kg, po by LC-MS/MS method; type: ADME, organism-based; details: in vivo
[7] = target: Epidermal growth factor receptor (Homo sapiens, UniProt P00533); experiment: Inhibition of recombinant human N-terminal GST-tagged wild-type EGFR (695 to end residues) expressed in baculovirus infected Sf9 insect cells using poly (Glu,Tyr)4:1 as substrate pretreated for 60 mins followed by substrate addition after 1 hr by ADP-Glo luminescence assay
[8] = Growth inhibition of human M07e cells; type: functional; details: Homo sapiens, M-07e
[9] = Elimination half-life in Sprague-Dawley rat at 1 mg/kg, iv by LC-MS/MS method; type: ADME, organism-based; details: in vivo, read-out: beta t1/2 (converted)
[10] = test system: MV4-11; experiment: Growth inhibition of human MV411 cells; type: functional; details: Homo sapiens, MV4-11
[11] = Cmax in Sprague-Dawley rat at 10 mg/kg, po by LC-MS/MS method; type: ADME, organism-based; set-up: dose 10 mg/kg, route oral; details: in vivo
[12] = test system: NB-4; experiment: Growth inhibition of human NB4 cells; type: functional; details: Homo sapiens, NB-4
[13] = AUC (0 to t) in Sprague-Dawley rat at 10 mg/kg, po by LC-MS/MS method; type: ADME, organism-based; details: in vivo
[14] = Elimination half-life in Sprague-Dawley rat at 10 mg/kg, po by LC-MS/MS method; type: ADME, organism-based; details: in vivo, read-out: beta t1/2 (converted)
[15] = target: T1, Tyrosine-protein kinase BTK (Homo sapiens, UniProt Q06187)
[16] = Tmax in Sprague-Dawley rat at 1 mg/kg, iv by LC-MS/MS method; type: ADME, organism-based; details: in vivo
[17] = MRT (0 to t) in Sprague-Dawley rat at 1 mg/kg, iv by LC-MS/MS method; type: ADME, organism-based; details: in vivo
[18] = test system: U-937; experiment: Growth inhibition of human U937 cells; type: functional; details: Homo sapiens, U-937
[19] = AUC (0 to infinity) in Sprague-Dawley rat at 1 mg/kg, iv by LC-MS/MS method; type: ADME, organism-based; set-up: dose 1 mg/kg, route intravenous, time infinity; details: in vivo
[20] = target: T1, Tyrosine-protein kinase BTK; experiment: Inhibition of full length recombinant human N-terminal His tagged […] expressed in baculovirus infected Sf9 insect cells using poly (Glu,Tyr)4:1 as substrate pretreated for 60 mins followed by substrate addition after 1 hr by ADP-Glo luminescence assay
[21] = test system: SKM-1; experiment: Growth inhibition of human SKM1 cells; type: functional; details: Homo sapiens, SKM-1
[22] = Oral bioavailability in Sprague-Dawley rat at 10 mg/kg by LC-MS/MS method; type: ADME, organism-based; details: in vivo
[23] = target: T2, Tyrosine-protein kinase JAK3 (Homo sapiens, UniProt P52333); experiment: Inhibition of recombinant human N-terminal GST-tagged JAK3 (781 to end residues) expressed in baculovirus infected Sf9 insect cells using poly (Glu,Tyr)4:1 as substrate pretreated for 60 mins followed by substrate addition after 1 hr by ADP-Glo luminescence assay
T2 sequence (P52333 whole entry): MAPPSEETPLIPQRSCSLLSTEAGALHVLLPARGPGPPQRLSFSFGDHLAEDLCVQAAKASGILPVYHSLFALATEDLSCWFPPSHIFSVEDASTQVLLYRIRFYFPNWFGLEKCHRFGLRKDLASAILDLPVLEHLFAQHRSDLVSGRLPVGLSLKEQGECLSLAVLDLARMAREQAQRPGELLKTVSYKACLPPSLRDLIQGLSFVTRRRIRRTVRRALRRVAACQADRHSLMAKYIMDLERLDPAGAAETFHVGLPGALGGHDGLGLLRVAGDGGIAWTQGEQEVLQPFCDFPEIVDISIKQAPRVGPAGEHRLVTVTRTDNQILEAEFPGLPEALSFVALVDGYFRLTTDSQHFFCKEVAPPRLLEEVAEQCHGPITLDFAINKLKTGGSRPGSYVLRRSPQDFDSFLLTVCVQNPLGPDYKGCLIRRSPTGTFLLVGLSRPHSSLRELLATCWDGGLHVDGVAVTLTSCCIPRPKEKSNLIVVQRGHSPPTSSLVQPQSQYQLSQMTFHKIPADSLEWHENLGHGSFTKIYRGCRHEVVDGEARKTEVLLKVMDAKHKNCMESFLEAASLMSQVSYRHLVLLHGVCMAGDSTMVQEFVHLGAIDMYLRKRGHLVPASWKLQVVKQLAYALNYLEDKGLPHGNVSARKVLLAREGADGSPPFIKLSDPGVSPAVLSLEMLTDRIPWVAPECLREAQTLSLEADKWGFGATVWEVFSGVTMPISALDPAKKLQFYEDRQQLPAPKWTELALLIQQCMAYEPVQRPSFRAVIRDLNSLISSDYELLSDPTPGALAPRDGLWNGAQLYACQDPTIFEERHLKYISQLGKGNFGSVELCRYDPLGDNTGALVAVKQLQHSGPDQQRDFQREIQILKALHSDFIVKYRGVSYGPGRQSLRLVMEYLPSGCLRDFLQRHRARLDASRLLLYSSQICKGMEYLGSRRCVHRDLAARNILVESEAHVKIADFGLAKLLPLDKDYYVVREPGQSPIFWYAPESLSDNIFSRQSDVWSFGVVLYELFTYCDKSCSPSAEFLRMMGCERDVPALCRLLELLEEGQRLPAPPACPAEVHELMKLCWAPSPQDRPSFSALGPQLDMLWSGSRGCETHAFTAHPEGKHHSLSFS

[24] = target: T1, Tyrosine-protein kinase BTK; experiment: Reversible inhibition of full length recombinant human N-terminal His tagged […] expressed in baculovirus infected Sf9 insect cells using poly (Glu,Tyr)4:1 as substrate pretreated for 2 to 60 mins followed by substrate addition after 1 hr by ADP-Glo luminescence assay
[25] = Tmax in Sprague-Dawley rat at 10 mg/kg, po by LC-MS/MS method; type: ADME, organism-based; details: in vivo
[26] = AUC (0 to t) in Sprague-Dawley rat at 1 mg/kg, iv by LC-MS/MS method; type: ADME, organism-based; details: in vivo
[27] = test system: OCI-AML-3; experiment: Growth inhibition of human OCI-AML3 cells; type: functional; details: Homo sapiens, OCI-AML-3
[28] = test system: SU-DHL-2; experiment: Growth inhibition of human SU-DHL-2 cells; type: functional; details: Homo sapiens, SU-DHL-2
[29] = test system: Pfeiffer; experiment: Growth inhibition of human Pfeiffer cells; type: functional; details: Homo sapiens, Pfeiffer
[30] = target: Tyrosine-protein kinase BTK (Homo sapiens, UniProt Q06187, C481S); experiment: Irreversible inhibition of recombinant full length 3'-FLAG-tagged BTK C481S mutant (unknown origin) expressed in HEK293T cells assessed as reduction in Y223 phosphorylation measured after 4 hrs by Western blot method; type: cell-based
[31] = test system: U2932; experiment: Cell cycle arrest in human U2932 cells assessed as increase in accumulation at G0/G1 phase at 10 uM after 48 hrs by propidium iodide/RNase staining based flow cytometric method; type: functional
[32] = target: T1, Tyrosine-protein kinase BTK; experiment: Irreversible inhibition of recombinant full length wild-type 3'-FLAG-tagged BTK (unknown origin) expressed in HEK293T cells assessed as reduction in Y223 phosphorylation measured after 4 hrs by Western blot method; type: cell-based
[33] = test system: Pfeiffer; experiment: Cell cycle arrest in human Pfeiffer cells assessed as increase in accumulation at G0/G1 phase at 10 uM after 48 hrs by propidium iodide/RNase staining based flow cytometric method; type: functional

T1 sequence (Q06187 whole entry): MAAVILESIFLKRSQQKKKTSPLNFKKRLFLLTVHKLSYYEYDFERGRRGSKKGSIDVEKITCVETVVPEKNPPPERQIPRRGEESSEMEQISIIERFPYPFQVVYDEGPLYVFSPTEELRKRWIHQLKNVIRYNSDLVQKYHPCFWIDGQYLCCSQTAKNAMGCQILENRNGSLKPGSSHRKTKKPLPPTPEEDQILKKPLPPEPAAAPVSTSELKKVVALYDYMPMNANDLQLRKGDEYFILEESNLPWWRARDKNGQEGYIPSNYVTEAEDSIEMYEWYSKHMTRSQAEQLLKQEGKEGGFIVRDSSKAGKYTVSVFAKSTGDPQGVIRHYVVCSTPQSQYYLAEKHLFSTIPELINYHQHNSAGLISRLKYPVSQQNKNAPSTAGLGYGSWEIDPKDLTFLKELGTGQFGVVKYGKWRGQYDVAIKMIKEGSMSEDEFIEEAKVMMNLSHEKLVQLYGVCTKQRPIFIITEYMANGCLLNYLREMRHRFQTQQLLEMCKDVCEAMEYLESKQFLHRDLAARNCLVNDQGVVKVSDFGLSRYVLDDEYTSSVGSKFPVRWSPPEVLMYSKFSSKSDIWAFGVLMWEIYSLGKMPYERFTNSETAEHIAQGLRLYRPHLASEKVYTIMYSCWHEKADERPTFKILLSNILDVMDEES
Sequence of Epidermal growth factor receptor (P00533 whole entry): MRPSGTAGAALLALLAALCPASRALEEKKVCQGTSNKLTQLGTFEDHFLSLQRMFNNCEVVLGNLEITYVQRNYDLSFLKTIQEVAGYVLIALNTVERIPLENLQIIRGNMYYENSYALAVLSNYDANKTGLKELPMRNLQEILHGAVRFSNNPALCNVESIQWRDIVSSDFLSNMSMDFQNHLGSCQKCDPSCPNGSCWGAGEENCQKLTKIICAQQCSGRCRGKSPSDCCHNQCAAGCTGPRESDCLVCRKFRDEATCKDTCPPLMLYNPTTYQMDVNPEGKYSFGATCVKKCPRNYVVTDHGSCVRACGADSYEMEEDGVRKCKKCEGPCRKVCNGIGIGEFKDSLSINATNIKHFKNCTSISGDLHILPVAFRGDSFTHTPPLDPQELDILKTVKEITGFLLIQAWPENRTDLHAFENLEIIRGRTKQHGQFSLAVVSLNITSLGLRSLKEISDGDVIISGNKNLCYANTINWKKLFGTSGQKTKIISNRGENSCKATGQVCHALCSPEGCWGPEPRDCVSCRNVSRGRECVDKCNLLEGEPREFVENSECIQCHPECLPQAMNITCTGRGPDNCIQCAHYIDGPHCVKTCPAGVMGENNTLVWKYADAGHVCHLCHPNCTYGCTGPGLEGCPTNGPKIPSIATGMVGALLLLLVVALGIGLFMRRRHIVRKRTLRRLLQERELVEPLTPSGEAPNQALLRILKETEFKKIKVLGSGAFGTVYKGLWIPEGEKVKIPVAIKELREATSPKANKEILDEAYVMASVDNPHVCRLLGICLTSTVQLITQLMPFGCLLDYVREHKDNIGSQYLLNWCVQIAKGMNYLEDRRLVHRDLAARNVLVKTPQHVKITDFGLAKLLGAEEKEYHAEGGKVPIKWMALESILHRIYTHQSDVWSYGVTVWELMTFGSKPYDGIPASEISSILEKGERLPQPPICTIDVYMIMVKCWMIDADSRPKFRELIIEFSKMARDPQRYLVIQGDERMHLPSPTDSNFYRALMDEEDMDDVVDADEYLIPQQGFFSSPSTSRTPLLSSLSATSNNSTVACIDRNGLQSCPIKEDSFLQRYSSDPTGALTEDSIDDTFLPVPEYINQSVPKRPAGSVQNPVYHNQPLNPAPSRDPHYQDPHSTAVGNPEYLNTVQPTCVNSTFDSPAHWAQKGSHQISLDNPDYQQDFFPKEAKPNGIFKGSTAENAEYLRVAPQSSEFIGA
Sequence of Tyrosine-protein kinase BTK (Homo sapiens, UniProt Q06187, C481S) (Q06187 2-659 C481S limits assumed): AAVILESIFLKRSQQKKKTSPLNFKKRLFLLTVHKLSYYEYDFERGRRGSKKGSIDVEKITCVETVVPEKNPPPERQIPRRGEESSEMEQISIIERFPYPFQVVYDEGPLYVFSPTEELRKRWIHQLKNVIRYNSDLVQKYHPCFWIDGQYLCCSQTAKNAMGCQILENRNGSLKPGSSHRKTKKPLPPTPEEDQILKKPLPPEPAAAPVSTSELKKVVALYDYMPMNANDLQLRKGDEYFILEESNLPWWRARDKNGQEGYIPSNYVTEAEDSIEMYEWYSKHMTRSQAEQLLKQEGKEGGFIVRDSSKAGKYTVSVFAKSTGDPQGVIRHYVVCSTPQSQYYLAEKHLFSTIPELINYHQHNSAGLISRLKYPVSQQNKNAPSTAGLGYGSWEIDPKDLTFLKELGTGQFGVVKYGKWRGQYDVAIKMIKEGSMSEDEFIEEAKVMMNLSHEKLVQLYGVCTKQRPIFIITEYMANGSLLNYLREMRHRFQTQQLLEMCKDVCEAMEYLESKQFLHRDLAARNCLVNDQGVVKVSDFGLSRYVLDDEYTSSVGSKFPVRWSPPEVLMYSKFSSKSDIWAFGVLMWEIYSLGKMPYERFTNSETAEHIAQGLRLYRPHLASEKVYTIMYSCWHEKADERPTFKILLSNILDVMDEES

## C=CC(=O)Nc1cc(Nc2cc(-c3cccc(NC(=O)c4ccc(N(C)C)cc4)c3C)cn(C)c2=O)ccc1C(=O)N1CCOCC1
[1]
  Activity: Non-Toxic
[2]
  GI50: 6.9 µM
[3]
  AUC(0-inf): 291 ng·h/mL
[4]
  GI50: 2.1 µM
[5]
  Cmax: 2440 ng/mL
[6]
  MRT last: 203 min
[7]
  IC50: 5.88 µM
[8]
  GI50: 3.2 µM
[9]
  half-life: 14.4 min
[10]
  GI50: 1.9 µM
[11]
  Cmax: 144 ng/mL
[12]
  GI50: 1.9 µM
[13]
  AUC(0-t): 151 ng·h/mL
[14]
  half-life: 472 min
[15]
  Kinact: 0.33 min⁻¹
[16]
  Tmax: 1.02 min
[17]
  MRT last: 9.6 min
[18]
  GI50: 2.6 µM
[19]
  AUC(0-inf): 317 ng·h/mL
[20]
  IC50: 0.0058 µM
[21]
  GI50: 1 µM
[22]
  bioavailability: 4.76%
[23]
  IC50: 2.01 µM
[24]
  Ki: 0.113 µM
[25]
  Tmax: 4.98 min
[26]
  AUC(0-t): 317 ng·h/mL
[27]
  GI50: 2.6 µM
[28]
  GI50: 2.6 µM
[29]
  GI50: 9 µM

## CCC(=O)Nc1cc(Nc2cc(-c3cccc(NC(=O)c4ccc(C(C)(C)C)cc4)c3C)cn(C)c2=O)ccc1C(=O)N1CCOCC1
[2]
  GI50: > 10 µM
[4]
  GI50: 4.6 µM
[30]
  EC50: > 0.1 µM
[8]
  GI50: > 10 µM
[31]
  Activity: inactive
[10]
  GI50: 4.8 µM
[12]
  GI50: > 10 µM
[32]
  EC50: > 0.1 µM
[33]
  Activity: inactive
[18]
  GI50: > 10 µM
[20]
  IC50: 0.163 µM
[21]
  GI50: > 10 µM
[27]
  GI50: 9.5 µM
[28]
  GI50: > 10 µM
[29]
  GI50: > 10 µM

## C=CC(=O)Nc1cc(Nc2cc(-c3cccc(NC(=O)c4cc5c(s4)CCCC5)c3C)cn(C)c2=O)ccc1C(=O)N1CCOCC1
[1]
  Activity: Non-Toxic
[2]
  GI50: 2.3 µM
[3]
  AUC(0-inf): 1900 ng·h/mL
[4]
  GI50: 1.2 µM
[5]
  Cmax: 7620 ng/mL
[6]
  MRT last: 141 min
[7]
  IC50: 6.86 µM
[8]
  GI50: 2.8 µM
[9]
  half-life: 36.5 min
[10]
  GI50: 2.2 µM
[11]
  Cmax: 1120 ng/mL
[12]
  GI50: 2.4 µM
[13]
  AUC(0-t): 1790 ng·h/mL
[14]
  half-life: 232 min
[15]
  Kinact: 0.05 min⁻¹
[16]
  Tmax: 1.02 min
[17]
  MRT last: 26.5 min
[18]
  GI50: 1.6 µM
[19]
  AUC(0-inf): 1560 ng·h/mL
[20]
  IC50: 0.0165 µM
[21]
  GI50: 2.8 µM
[22]
  bioavailability: 11.5%
[23]
  IC50: 1.03 µM
[24]
  Ki: 0.006 µM
[25]
  Tmax: 90 min
[26]
  AUC(0-t): 1560 ng·h/mL
[27]
  GI50: 2.3 µM
[28]
  GI50: 1.8 µM
[29]
  GI50: 3.5 µM

Source: ChEMBL document CHEMBL4024706 (Eur J Med Chem, 2017)
